Laboratory results taken from patent publication US9370508B2, “Imidazoquinolines as dual lipid kinase and mTOR inhibitors” (NOVARTIS AG, priority 2007, dated 2016).

Key:
[1] = test system: ribosomal protein S6 phosphorylation; test: 96-well in-cell western assay of ribosomal protein S6 phosphorylation in HeLa cells; type: cell-based; conditions: Homo sapiens, 1 h, 60 min stimulation with nutrients in the presence or absence of 100 nM insulin, anti-phospho(Ser235-236)S6, read-out: induced phosphorylation of S6, mean IC50
Procedure: A 96-well “in-cell western” assay is used to quantitate the levels of ribosomal protein S6 phosphorylation following treatment of HeLa cells with compounds. HeLa cells are seeded on to 96-wells plates (5000 cells/well), cultured for 72 h prior to serum deprivation for 18 h, in a humidified environment of 5% CO2 at 37° C. throughout. Thereafter, they are incubated in 200 μL of starve-medium for 180 min prior to a 60 min stimulation with 200 μL of test-medium. All solutions are pre-warmed for 30 min; the 96-well plates are sealed (Millipore) and incubated in a non-CO2 incubator at 37° C. during the starvation and stimulation protocol. […] After a 48 h blocking step in Tris buffered saline pH=7.2 containing 0.1% Triton-X100 and 0.1% bovine serum albumin, at 4° C., fixed cells are incubated overnight at 4° C. with the anti-phospho(Ser235-236)S6 primary antibody (Cell Signaling Technologies #2211 [can be substituted with Cell Signaling Technologies #2215 to quantitate S6 phosphorylation at Ser240-244]; 50 μL at 1:300 in blocking-solution), washed (8×200 μL TBS) before 100 μL of europium-labeled anti-rabbit secondary antibody (Perkin-Elmer; 2.4 μg/mL) is added for 90 min at room temperature in the dark. After a final wash (8×200 μL TBS), 100 μL of Delphia™ Enhancement-solution is added to each well and the fluorescence quantified 120 min later using an Envision 2101 (Perkin-Elmer). […]

mTOR enzyme = target: T1, mTOR enzyme (Homo sapiens, UniProt P42345); test: K-LISA mTOR activity kit biochemical assay; conditions: GST-S6K1 substrate, 100 μM ATP, 30 minutes at 30° C., anti-phospho Thr389 detection; read-out: mTOR kinase activity, mean IC50
T1 construct: purchased Calbiochem CBA055
Procedure: This mixture is then transferred to a glutathione-coated 96-well plate pre-incubated with GST-S6K1 recombinant protein. Kinase reactions are initiated by adding kinase buffer containing 100 μM ATP and are incubated for 30 minutes at 30° C. mTOR activity is quantitated using an anti-phospho Thr389-HRP conjugate detection system. Wortmannin served as control compound for the mTOR kinase activity assay.

IC50 [1] [nM]	IC50 (mTOR enzyme) [nM]	Structure (SMILES)
11	1.4	COc1ccc(-c2ccc3ncc4c(c3c2)n(-c2ccc(N3CCNCC3)c(C(F)(F)F)c2)c(=O)n4C)cn1 [compound 2, 8-(6-Methoxy-pyridin-3-yl)-3-methyl-1-(4-piperazin-1-yl-3-trifluoromethyl-phenyl)-1,3-dihydro-imidazo[4,5-c]quinolin-2-one]
17	–	Cn1c(=O)n(-c2ccc(C(C)(C)C#N)cc2)c2c3cc(-c4cnc5ccccc5c4)ccc3ncc21 [compound 1, 2-Methyl-2-[4-(3-methyl-2-oxo-8-quinolin-3-yl-2,3-dihydro-imidazo[4,5-c]quinolin-1-yl)-phenyl]-propionitrile]
